tested on: HCV replicon cells; assay: Cell-based HCV replicon assay (replicon RNA level by real time PCR, Taqman); settings: Hepatitis C virus, 72 h, HCV replicon cells, replicon RNA level by real time PCR (Taqman), day 3; calculated EC90; read-out: EC90 (μM) range
Procedure, shortened: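 Readout: ΔCT between NS5B replicon RNA and GAPDH by real-time RT-PCR in lysates harvested on day 3, fitted sigmoidally; EC50 at ΔCT=1, EC90 at ΔCT=3.2. Compounds tested at ten 2-fold dilutions from 25 μM to 1 μM start, 10% FBS, 0.5% DMSO.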

`Cc1nc(NCC(O)c2ccccc2)nc(N[C@@H]2C[C@H](CO)[C@@H](O)[C@H]2O)c1-c1nc2ccccc2s1` (some centres unmarked) [Example 1919] and `Cc1ccc([C@H](Nc2nc(C)c(-c3nc4ccccc4s3)c(N[C@@H]3C[C@H](CO)[C@H]4OC(C)(C)O[C@H]43)n2)C(F)(F)F)cc1` [Example 2004] fall in the same range of EC90: 0.5 to 5 µM for the first, 0.5 to 5 µM for the second.

`Cc1nc(NCC(F)(F)F)nc(N[C@@H]2C[C@H](CO)[C@@H](O)[C@H]2O)c1-c1nc2cnccc2o1` [Example 2001] and `Cc1nc(NCC2CC2)nc(N[C@@H]2C[C@H](CO)[C@@H](O)[C@H]2O)c1-c1nc2cnccc2o1` [Example 2003] fall in the same range of EC90: 0.5 to 5 µM for the first, 0.5 to 5 µM for the second.

`Cc1nc(NCC(F)(F)F)nc(N[C@@H]2C[C@H](CO)[C@H]3OC(C)(C)O[C@H]32)c1-c1nc2cnccc2o1` [Example 2002] was tested, and the EC90 was greater than 5 µM.

same assay, conditions: Hepatitis C virus, 72 h, HCV replicon cells, replicon RNA level by real time PCR, harvested day 3; read-out: EC90 (μM) range

First: CCOCCNc1nc(C)c(-c2nc3cnccc3s2)c(N[C@@H]2CC[C@@H](O)[C@@]2(C)O)n1 [Example 1819]
Second: Cc1nc(NC2CC2)nc(N[C@@H]2CC[C@@H](O)[C@@]2(C)O)c1-c1nc2cnccc2s1 [Example 1820]
The EC90 of the first is lower: less than 0.5 µM for the first, 0.5 to 5 µM for the second.

`Cc1nc(NCc2ccc(F)cc2F)nc(N[C@@H]2CC[C@@H](O)[C@@]2(C)O)c1-c1nc2cnccc2s1` [Example 1821] and `Cc1nc(NCc2cc3cn[nH]c3cc2F)nc(N[C@@H]2C[C@H](CO)[C@@H](O)[C@H]2O)c1-c1nc2cnccc2s1` [Example 1911] cannot be ordered by EC90: less than 0.5 µM for the first, less than 0.5 µM for the second.

`Cc1nc(C(N)=O)nc(N[C@@H]2C[C@H](CO)[C@H]3OC(C)(C)O[C@H]32)c1-c1nc2ccccc2s1` [Example 1902] and `Cc1nc(C(N)=O)nc(N[C@@H]2C[C@H](CO)[C@@H](O)[C@H]2O)c1-c1nc2ccccc2s1` [Example 1903] cannot be ordered by EC90: greater than 5 µM for the first, greater than 5 µM for the second.

First: Cc1nc(C#N)nc(N[C@@H]2C[C@H](CO)[C@@H](O)[C@H]2O)c1-c1nc2ccccc2s1 [Example 1904]
Second: COc1nc(C)c(-c2nc3ccccc3s2)c(N[C@@H]2C[C@H](CO)[C@@H](O)[C@H]2O)n1 [Example 1907]
The EC90 of the first is higher: greater than 5 µM for the first, 0.5 to 5 µM for the second.

First: Cc1nc(N)nc(N[C@@H]2C[C@H](COS(C)(=O)=O)[C@@H](O)[C@H]2O)c1-c1nc2ccccc2s1 [Example 1905]
Second: CC(=O)OC[C@H]1C[C@@H](Nc2nc(N)nc(C)c2-c2nc3ccccc3s2)[C@H](O)[C@@H]1O [Example 1915]
The EC90 of the first is lower: 0.5 to 5 µM for the first, greater than 5 µM for the second.

Compared with `C=CCNc1nc(C)c(C2=NC3=C=CC=CC3S2)c(N[C@@H]2C[C@H](CO)[C@@H](O)[C@H]2O)n1` (some centres unmarked) [Example 1906], `Cc1nc(NS(C)(=O)=O)nc(N[C@@H]2C[C@H](CO)[C@@H](O)[C@H]2O)c1-c1nc2ccccc2s1` [Example 1917] is higher in EC90: 0.5 to 5 µM for the first, greater than 5 µM for the second.

Compared with `Cc1nc(NCc2cc3cnn(C(=O)OC(C)(C)C)c3cc2F)nc(N[C@@H]2C[C@H](CO)[C@H]3OC(C)(C)O[C@H]32)c1-c1nc2ccccc2s1` [Example 1908], `Cc1nc(NCc2cc3cn[nH]c3cc2F)nc(N[C@@H]2C[C@H](CO)[C@@H](O)[C@H]2O)c1-c1nc2ccccc2s1` [Example 1909] is lower in EC90: 0.5 to 5 µM for the first, less than 0.5 µM for the second.

`Cc1nc(NCc2c(F)cccc2F)nc(N[C@@H]2C[C@H](CO)[C@@H](O)[C@H]2O)c1-c1nc2ccccc2s1` [Example 1910] and `Cc1nc(NCc2ccc3[nH]cnc3c2)nc(N[C@@H]2C[C@H](CO)[C@@H](O)[C@H]2O)c1-c1nc2ccccc2s1` [Example 1912] cannot be ordered by EC90: less than 0.5 µM for the first, less than 0.5 µM for the second.

Compared with `COc1ccc(CCNc2nc(C)c(-c3nc4cnccc4s3)c(N[C@@H]3C[C@H](CO)[C@@H](O)[C@H]3O)n2)cc1Cl` [Example 1913], `Cc1nc(NCCc2ccc(Cl)c(Cl)c2)nc(N[C@@H]2C[C@H](CO)[C@@H](O)[C@H]2O)c1-c1nc2cnccc2s1` [Example 1914] is lower in EC90: 0.5 to 5 µM for the first, less than 0.5 µM for the second.

Going from `Cc1nc(CN)nc(N[C@@H]2C[C@H](CO)[C@@H](O)[C@H]2O)c1-c1nc2ccccc2s1` [Example 1916] to `Cc1nc(NCC(O)c2ccccc2)nc(N[C@@H]2C[C@H](CO)[C@@H](O)[C@H]2O)c1-c1nc2cnccc2s1` (some centres unmarked) [Example 1918], the EC90 falls from greater than 5 µM to less than 0.5 µM.

same assay, conditions: Hepatitis C virus, 72 h, read-out: EC90 (μM) range

`Cc1nc(C#N)nc(N[C@@H]2C[C@H](CO)[C@H]3OC(C)(C)O[C@H]32)c1-c1nc2ccccc2s1` [Example 1901] was tested, and the EC90 was greater than 5 µM.

Source: patent US8697694B2, “Substituted pyridine and pyrimidine derivatives and their use in treating viral infections” (priority 2008, dated 2014)
